# Measured values from patent US5872126A, “Methods and compositions for treating preterm labor” (priority 1997, dated 1999).
# Where “and” joins values, the source holds several entries; their conditions need not be identical. Equal entries are not always repeated.
# T1: 5α-reductase in rat placenta (Rattus norvegicus, UniProt P24008)
# T1 construct: microsomes prepared from rat placenta; tissue Bioproducts for Science; host or cells: rat placenta (microsomes, 100,000×g pellet of homogenate)
# T1 sequence (P24008 1-259): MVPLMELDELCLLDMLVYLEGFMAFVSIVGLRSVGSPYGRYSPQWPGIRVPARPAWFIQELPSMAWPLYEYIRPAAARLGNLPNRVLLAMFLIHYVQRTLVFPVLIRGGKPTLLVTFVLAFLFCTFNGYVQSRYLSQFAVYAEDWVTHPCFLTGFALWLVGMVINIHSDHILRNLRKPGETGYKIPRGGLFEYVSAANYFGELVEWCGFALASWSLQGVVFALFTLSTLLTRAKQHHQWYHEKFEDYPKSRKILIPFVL
# T2: rat type 2 5α-reductase (Rattus norvegicus, UniProt P31214)
# T2 construct: made in house; host or cells: COS cells
# T2 sequence (P31214 1-254): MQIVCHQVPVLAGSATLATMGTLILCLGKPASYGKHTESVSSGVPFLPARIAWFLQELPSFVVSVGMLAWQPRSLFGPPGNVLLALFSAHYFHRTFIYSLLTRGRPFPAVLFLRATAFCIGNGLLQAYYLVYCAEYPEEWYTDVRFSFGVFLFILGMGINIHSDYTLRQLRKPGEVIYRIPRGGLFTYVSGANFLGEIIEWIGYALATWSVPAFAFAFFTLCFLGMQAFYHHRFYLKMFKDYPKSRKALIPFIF
# T3: rat type 1 5α-reductase (Rattus norvegicus, UniProt P24008)
# T3 construct: made in house; host or cells: COS cells
# T3 sequence (P24008 1-259): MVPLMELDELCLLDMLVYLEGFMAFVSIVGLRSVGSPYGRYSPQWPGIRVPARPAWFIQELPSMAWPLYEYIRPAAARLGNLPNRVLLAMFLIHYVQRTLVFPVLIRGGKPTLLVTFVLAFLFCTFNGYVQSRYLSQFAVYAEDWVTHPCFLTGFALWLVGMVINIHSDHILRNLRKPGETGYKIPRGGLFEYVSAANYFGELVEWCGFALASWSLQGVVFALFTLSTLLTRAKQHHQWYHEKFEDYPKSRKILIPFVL
# Tests used:
# [1] = test system: parturition in mice homozygous for genetic null mutations of type 1 5α-reductase; settings: mice homozygous for type 1 5α-reductase null mutations; cited from earlier work
# [2] = test system: parturition in the rat; assay: Parturition with test compound and progesterone antagonist RU-486 (Example 3); assay type: in vivo, Sprague-Dawley rat; settings: RU-486 10 mg/kg on GD 21 (Group 2)
# Method: In order to determine if the effects in the experiments conducted in Examples 1 and 2 were due to decreased progesterone catabolism associated with inhibition of 5α-reductase by the 5α-reductase type 1 inhibitor 3-oxo-4-aza-4,7β-dimethyl-16β-(4-chlorophenoxy)-5α-androstane ("test compound"), the following study was performed with the 5α-reductase inhibitor 3-oxo-4-aza-4,7β-dimethyl-16β-(4-chlorophenoxy)-5α-androstane and the progesterone antagonist RU-486.
# Fifty-six pregnant female Sprague-Dawley rats (Charles River Laboratories, Raleigh, N.C.), approximately 10.5 weeks old weighing from 212 to 319 grams were employed in the study. They were fed and housed as described in EXAMPLE 1. The females were assigned to the following groups based on a weight independent random allocation scheme:
# Control (Control article)
# test compound @ 20 mg/kg/day
# A dose of 10 mg/kg off RU-486 was selected based on the studies of Abdellilah et al., Progesterone and Mifepristone modify principally the response of circular myometrium to oxytocin in preparturient rats: comparison with response to acetylcholine and to calcium J. Pharmacol. and Exp. Therp.
# The drugs were administered by oral gavage. The control article and vehicle consisted of 0.5% methylcellulose in deionized water with 0.02% sodium lauryl sulfate (SLS) and were prepared on a weekly basis and refrigerated when not in use. The test compound formulation (4 mg/mL, in vehicle) was prepared on a weekly basis and was refrigerated when not in use. The RU-486 formulation (2 mg base compound/mL, in 0.5% methylcellulose in deionized water) was prepared on a daily basis.
# [3] = test system: parturition in pregnant rats; settings: oral dose 10 mg/kg on GD 21; rats treated with 200 mg/kg progesterone subcutaneously; cited from earlier work
# [4] = cited from earlier work; for side effects: human, in vivo
# [5] = target: T1, 5α-reductase in rat placenta; assay: 5α-reductase assay, rat placenta microsomes; assay type: biochemical; settings: read-out: IC50 finasteride
# Method: (§1) The 5α-reductase content of microsomes prepared from rat placenta was determined.
# (§2) Rat placenta was obtained from Bioproducts for Science. The tissue was homogenized in 10 volumes of buffer containing 0.25 sucrose, 40 mM potassium phosphate pH 6.5, 5 mM magnesium sulfate, 25 mM potassium chloride, 1 mM phenylmethylsulfonyl fluoride, and 1 mM dithiothreitol using a Potter Elverhjem homogenizer. The homogenate was centrifuged at 100,000×g for 60 minutes at 4° C. The pellet was resuspended in 1.5 volumes of buffer. Glycerol was added to the resuspended pellet to a final concentration of 20%. COS cell expressed rat 5α-reductase was used as the source of type 1 and type 2 in these studies for comparison.
# (§3) All samples in the enzyme assay were tested in a reaction mixture containing 33 mM succinic acid, 44 mM imidazole, 33 mM diethanolamine (SID), pH 5.5 and pH 7.5, 0.5 μM [7-^3 H]-testosterone (specific activity approximately 20-30 Ci/mmol), 1.5 μM unlabeled testosterone, 1 mM DTT and […] NADPH in a final volume of […]. The assay was initiated by the addition of enzyme and incubated at 37° C. for 15 min.
# [6] = target: T2, rat type 2 5α-reductase; assay: 5α-reductase assay, COS cell expressed rat type 2; assay type: biochemical; settings: read-out: IC50 finasteride
# Method: as §2, §3
# [7] = target: T3, rat type 1 5α-reductase; assay: 5α-reductase assay, COS cell expressed rat type 1; assay type: biochemical; settings: recombinant rat type 1; read-out: IC50 finasteride
# Method: as §2, §3
# [8] = test system: human type 2 enzyme; settings: cited from earlier work
# [9] = test system: pregnancy and myometrial contractile activity in the rat; settings: exogenous progesterone; cited from earlier work
# [10] = substrate: C[C@]12CC[C@H]3[C@@H](CCC4=CC(=O)CC[C@@]43C)[C@@H]1CC[C@@H]2O; assay: 5α-reductase assay, rat placenta microsomes; assay type: biochemical; settings: other: rat placenta microsomes; 37.0 °C
# Method: as §1, §2, §3
# [11] = substrate: C[C@]12CC[C@H]3[C@@H](CCC4=CC(=O)CC[C@@]43C)[C@@H]1CC[C@@H]2O; assay: 5α-reductase assay, COS cell expressed rat type 1; assay type: biochemical; settings: other: recombinant rat type 1; 37.0 °C
# Method: as §2, §3
# [12] = substrate: C[C@]12CC[C@H]3[C@@H](CCC4=CC(=O)CC[C@@]43C)[C@@H]1CC[C@@H]2O; assay: 5α-reductase assay, COS cell expressed rat type 2; assay type: biochemical; settings: other: rat type 2; 37.0 °C
# Method: as §2, §3
molecule,measurement,setting,value
"C[C@]12CC[C@@H](O)C[C@@H]1CC[C@@H]1[C@@H]2CC[C@]2(C)[C@@H](O)CC[C@@H]12 [Example 3α-Adiol, 5α-androstan-3α,17β-diol]",mice in which parturition was induced,[1],93%
"CC#C[C@]1(O)CC[C@H]2[C@@H]3CCC4=CC(=O)CCC4=C3[C@@H](c3ccc(N(C)C)cc3)C[C@@]21C [RU-486, reference compound]",Mean Length of Gestation ± SD,"[2]; only females completing delivery, 10 mg/kg",22.3 days and 22.3 ± 0.4 days
same,number of females completing parturition,[2]; delivery day GD 22.0,7
same,number of females completing parturition,[2]; delivery day GD 22.5,5
same,number of females completing parturition,[2]; delivery day GD 23.0,2
same,induction of parturition,[3],able to induce parturition
same,mice in which parturition was induced,[1],100%
CCO [ethanol],effectiveness in preventing premature labor,[4]; compared with ritodrine,as effective as ritodrine in preventing premature labor
same,reduction in the incidence of fetal respiratory distress,[4]; compared with ritodrine,does not produce a corresponding reduction in the incidence of fetal respiratory distress
"CC(C)(C)NC(=O)[C@H]1CC[C@H]2[C@@H]3CC[C@H]4NC(=O)C=C[C@]4(C)[C@H]3CC[C@]12C [finasteride, 17β-(N-tert-butylcarbamoyl)-3-oxo-4-aza-5α-androst-1-en-3-one]",IC50,[5],11 nM
same,IC50,[6],1 nM
same,IC50,[7],13 nM
same,inhibition of the human type 2 enzyme,[8],potent inhibitor
O=S(=O)([O-])[O-].[Mg+2] [magnesium sulfate],adverse effects at plasma concentrations above the therapeutic range,[4]; above 4 to 8 mg/dL,"inhibition of cardiac conduction and neuromuscular transmission, respiratory depression and cardiac arrest"
CC(=O)[C@H]1CC[C@H]2[C@@H]3CCC4=CC(=O)CC[C@]4(C)[C@H]3CC[C@]12C [progesterone],effect on pregnancy and myometrial contractile activity,[9],prolong pregnancy and impair myometrial contractile activity
CC(NCCc1ccc(O)cc1)C(O)c1ccc(O)cc1 (stereo not drawn) [ritodrine],side effects,[4],"tachycardia, increased renin secretion, hyperglycemia (and reactive hypoglycemia in the infant)"
CC(C)(C)NCC(O)c1ccc(O)c(CO)c1 (stereo not drawn) [salbutamol],side effects,[4],side effects similar to those of ritodrine
CC(C)(C)NCC(O)c1cc(O)cc(O)c1 (stereo not drawn) [terbutaline],side effects,[4],side effects similar to those of ritodrine
"5α-reductase in rat placenta (Rattus norvegicus) (protein, microsomes prepared from rat placenta; tissue Bioproducts for Science; host or cells: rat placenta (microsomes, 100,000×g pellet of homogenate)) MVPLMELDELCLLDMLVYLEGFMAFVSIVGLRSVGSPYGRYSPQWPGIRVPARPAWFIQELPSMAWPLYEYIRPAAARLGNLPNRVLLAMFLIHYVQRTLVFPVLIRGGKPTLLVTFVLAFLFCTFNGYVQSRYLSQFAVYAEDWVTHPCFLTGFALWLVGMVINIHSDHILRNLRKPGETGYKIPRGGLFEYVSAANYFGELVEWCGFALASWSLQGVVFALFTLSTLLTRAKQHHQWYHEKFEDYPKSRKILIPFVL",Km,[10],5.2 µM
"rat type 1 5α-reductase (Rattus norvegicus) (protein, made in house; host or cells: COS cells) MVPLMELDELCLLDMLVYLEGFMAFVSIVGLRSVGSPYGRYSPQWPGIRVPARPAWFIQELPSMAWPLYEYIRPAAARLGNLPNRVLLAMFLIHYVQRTLVFPVLIRGGKPTLLVTFVLAFLFCTFNGYVQSRYLSQFAVYAEDWVTHPCFLTGFALWLVGMVINIHSDHILRNLRKPGETGYKIPRGGLFEYVSAANYFGELVEWCGFALASWSLQGVVFALFTLSTLLTRAKQHHQWYHEKFEDYPKSRKILIPFVL",Km,[11],1.7 µM
"rat type 2 5α-reductase (Rattus norvegicus) (protein, made in house; host or cells: COS cells) MQIVCHQVPVLAGSATLATMGTLILCLGKPASYGKHTESVSSGVPFLPARIAWFLQELPSFVVSVGMLAWQPRSLFGPPGNVLLALFSAHYFHRTFIYSLLTRGRPFPAVLFLRATAFCIGNGLLQAYYLVYCAEYPEEWYTDVRFSFGVFLFILGMGINIHSDYTLRQLRKPGEVIYRIPRGGLFTYVSGANFLGEIIEWIGYALATWSVPAFAFAFFTLCFLGMQAFYHHRFYLKMFKDYPKSRKALIPFIF",Km,[12],0.15 µM
